Where a name gives a salt, the structure may show the parent alone.
The molecules below were run against T1, Notch1 (Homo sapiens, UniProt P46531) (assay: Notch1 Reporter Assay (CSL-responsive luciferase, doxycycline-induced Notch-ICD in 293A cells)). Settings: 25 ng/mL Dox, 24 h, luciferase normalized to cell viability.
T1 construct: pLV[Tet]-Puro-TRE3G>Notch1-ICD; expressed in transfected cells; host or cells: 293A cells
Format: cell-based
Method: 293A cells expressing 1) pCMV-Tet-On 3G, 2) pLV[Tet]-Puro-TRE3G>Notch1-ICD, 3) pLV[Tet]-Puro-TRE3G>Notch2-ICD, 4) pLV[Tet]-Puro-TRE3G>Notch3-ICD, and 5) pCSL-RElement-Luc were used. When Doxycycline is added, the Tet-ON gene activates expression of hNotch1ICD, which together with endogenous NTC components binds to CSL responsive elements (pCSL-RElement-Luc) and expresses luciferase. 1×10^4 cells are plated in 100 μL (96-well format). 24 h later, compounds (10 mM stock in DMSO) are diluted in DMSO to 200×, then added (5 ul into 1 mL) to cell culture media containing 50 ng/mL Dox. This is then added 1:1 to cells. Final DMSO=0.25%, Dox=25 ng/mL. After 24 h, media is discarded, and cells are lysed in passive lysis buffer (Promega). Cells are rocked at room temperature for 15 min and then lysate is divided for luciferase assay (Luciferase Assay System, Promega) and cell viability (CellTiter Glo 2.0, Promega). Raw luciferase is normalized to cell viability, and then scaled to DMSO wells. Results are analyzed and IC50's are determined in GraphPad by nonlinear regression curve fitting (4 parameter) of dose response curves.

T1 sequence (P46531 1754-2555 limits assumed): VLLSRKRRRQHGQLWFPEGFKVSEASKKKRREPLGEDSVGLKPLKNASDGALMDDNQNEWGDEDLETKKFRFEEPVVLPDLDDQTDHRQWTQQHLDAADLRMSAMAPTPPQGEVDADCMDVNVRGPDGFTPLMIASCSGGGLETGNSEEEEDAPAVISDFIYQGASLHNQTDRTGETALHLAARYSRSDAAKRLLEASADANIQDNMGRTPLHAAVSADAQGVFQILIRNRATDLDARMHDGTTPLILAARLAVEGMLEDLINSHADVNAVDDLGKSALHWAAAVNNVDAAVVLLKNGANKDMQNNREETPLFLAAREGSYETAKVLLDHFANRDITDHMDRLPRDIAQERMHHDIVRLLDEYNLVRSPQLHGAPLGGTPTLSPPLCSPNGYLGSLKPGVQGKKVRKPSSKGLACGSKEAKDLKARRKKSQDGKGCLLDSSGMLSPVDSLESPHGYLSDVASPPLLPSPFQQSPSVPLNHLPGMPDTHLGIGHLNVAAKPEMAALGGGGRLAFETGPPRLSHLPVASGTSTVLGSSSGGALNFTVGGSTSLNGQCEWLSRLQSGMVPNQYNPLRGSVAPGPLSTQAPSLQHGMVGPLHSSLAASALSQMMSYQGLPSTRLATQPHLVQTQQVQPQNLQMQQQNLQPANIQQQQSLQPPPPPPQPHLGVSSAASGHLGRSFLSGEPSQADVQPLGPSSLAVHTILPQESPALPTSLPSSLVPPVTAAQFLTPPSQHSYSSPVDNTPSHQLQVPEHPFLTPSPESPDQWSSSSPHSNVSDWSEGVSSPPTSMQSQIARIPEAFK

**Q.** For `Cn1c(=O)n(CC(=O)N(Cc2nnc[nH]2)c2ccc(F)cc2)c2cc(C(F)(F)F)cc(-c3ccc(OCc4nnc[nH]4)c(F)c3)c21` [SSTN-592, 2-(4-(4-((4H-1,2,4-triazol-3-yl)methoxy)-3-fluorophenyl)-3-methyl-2-oxo-6-(trifluoromethyl)-2,3-dihydro-1H-benzo[d]imidazol-1-yl)-N-((4H-1,2,4-triazol-3-yl)methyl)-N-(4-fluorophenyl)acetamide], which IC50 is on record?
**A.** 14.8 µM

**Q.** `COc1cc(-c2cc(C(F)(F)F)cc3c2n(C)c(=O)n3CC(=O)Nc2cccc(CN3CCOCC3)c2)cc(F)c1OCc1nnc[nH]1` [SSTN-575, 2-(4-(4-((4H-1,2,4-triazol-3-yl)methoxy)-3-fluoro-5-methoxyphenyl)-3-methyl-2-oxo-6-(trifluoromethyl)-2,3-dihydro-1H-benzo[d]imidazol-1-yl)-N-(3-(morpholinomethyl)phenyl)acetamide] was tested. Which IC50 did it give?
**A.** 12.5 µM

**Q.** For `Cn1c(=O)n(CC(=O)N(Cc2nnc[nH]2)c2ccc(F)cc2)c2cc(C(F)(F)F)cc(-c3cc(Cl)c(OCc4nnc[nH]4)c(Cl)c3)c21` [SSTN-594, 2-(4-(4-((4H-1,2,4-triazol-3-yl)methoxy)-3,5-dichlorophenyl)-3-methyl-2-oxo-6-(trifluoromethyl)-2,3-dihydro-1H-benzo[d]imidazol-1-yl)-N-((4H-1,2,4-triazol-3-yl)methyl)-N-(4-fluorophenyl)acetamide], which IC50 is on record?
**A.** 4.5 µM

**Q.** For `Cn1c(=O)n(CC(=O)Nc2ccc(F)cc2)c2cc(C(F)(F)F)cc(-c3cc(Cl)c(OCc4nnc[nH]4)c(Cl)c3)c21` [SSTN-599, 2-(4-(4-((4H-1,2,4-triazol-3-yl)methoxy)-3,5-dichlorophenyl)-3-methyl-2-oxo-6-(trifluoromethyl)-2,3-dihydro-1H-benzo[d]imidazol-1-yl)-N-(4-fluorophenyl)acetamide], which IC50 is on record?
**A.** 13.9 µM

**Q.** Which IC50 does the source give for `COc1cc(-c2cc(C(F)(F)F)cc3c2n(C)c(=O)n3CC(=O)Nc2cncc(C(F)(F)F)c2)cc(F)c1OCc1nnc[nH]1` [SSTN-614, 2-(4-(4-((4H-1,2,4-triazol-3-yl)methoxy)-3-fluoro-5-methoxyphenyl)-3-methyl-2-oxo-6-(trifluoromethyl)-2,3-dihydro-1H-benzo[d]imidazol-1-yl)-N-(5-(trifluoromethyl)pyridin-3-yl)acetamide] here?
**A.** 3.4 µM

**Q.** `Cn1c(=O)n(CC(=O)Nc2ccc(F)cc2)c2cc(C(F)(F)F)cc(-c3ccc(OCc4nnc[nH]4)c(F)c3)c21` [SSTN-597, 2-(4-(4-((4H-1,2,4-triazol-3-yl)methoxy)-3-fluorophenyl)-3-methyl-2-oxo-6-(trifluoromethyl)-2,3-dihydro-1H-benzo[d]imidazol-1-yl)-N-(4-fluorophenyl)acetamide] was tested. Which IC50 did it give?
**A.** 8.1 µM

**Q.** With `COc1cc(-c2cc(C(F)(F)F)cc3c2n(C)c(=O)n3CC(=O)Nc2cccc(C#N)c2)cc(F)c1OCc1nnc[nH]1` [SSTN-545, 2-(4-(4-((4H-1,2,4-triazol-3-yl)methoxy)-3-fluoro-5-methoxyphenyl)-3-methyl-2-oxo-6-(trifluoromethyl)-2,3-dihydro-1H-benzo[d]imidazol-1-yl)-N-(3-cyanophenyl)acetamide] as the molecule, how does the IC50 read?
**A.** 5.8 µM

**Q.** How did the IC50 turn out when `COc1cc(-c2cc(C(F)(F)F)cc3c2n(C)c(=O)n3CC(=O)N2CCN(C)CC2)cc(F)c1OCc1nnc[nH]1` [SSTN-544, 4-(4-((4H-1,2,4-triazol-3-yl)methoxy)-3-fluoro-5-methoxyphenyl)-3-methyl-1-(2-(4-methylpiperazin-1-yl)-2-oxoethyl)-6-(trifluoromethyl)-1,3-dihydro-2H-benzo[d]imidazol-2-one] was run?
**A.** 51.1 µM

**Q.** For `COc1ccc(NC(=O)Cn2c(=O)n(C)c3c(-c4cc(F)c(OCc5nnc[nH]5)c(OC)c4)cc(C(F)(F)F)cc32)cn1` [SSTN-613, 2-(4-(4-((4H-1,2,4-triazol-3-yl)methoxy)-3-fluoro-5-methoxyphenyl)-3-methyl-2-oxo-6-(trifluoromethyl)-2,3-dihydro-1H-benzo[d]imidazol-1-yl)-N-(6-methoxypyridin-3-yl)acetamide], which IC50 is on record?
**A.** 9.2 µM

**Q.** How did the IC50 turn out when `COc1cc(-c2cc(C(F)(F)F)cc3c2n(C)c(=O)n3CC(=O)Nc2cccc(S(C)(=O)=O)c2)cc(F)c1OCc1nnc[nH]1` [SSTN-501, 2-(4-(4-((4H-1,2,4-triazol-3-yl)methoxy)-3-fluoro-5-methoxyphenyl)-3-methyl-2-oxo-6-(trifluoromethyl)-2,3-dihydro-1H-benzo[d]imidazol-1-yl)-N-(3-(methylsulfonyl)phenyl)acetamide hydrochloride] was run?
**A.** 13 µM

**Q.** For `COc1cc(-c2cc(F)cc3c2n(C)c(=O)n3CC(=O)N(C)c2ccc(F)cc2)cc(F)c1OCc1nnc[nH]1` [compound 425, 2-(4-(4-((4H-1,2,4-triazol-3-yl)methoxy)-3-fluoro-5-methoxyphenyl)-6-fluoro-3-methyl-2-oxo-2,3-dihydro-1H-benzo[d]imidazol-1-yl)-N-(4-fluorophenyl)-N-methylacetamide hydrochloride], which IC50 is on record?
**A.** 33.5 µM

**Q.** With `COc1cc(-c2cc(C)cc3c2n(C)c(=O)n3CC(=O)Nc2ccc(F)cc2)cc(F)c1OCc1nnc[nH]1` [SSTN-606, 2-(4-(4-((4H-1,2,4-triazol-3-yl)methoxy)-3-fluoro-5-methoxyphenyl)-3,6-dimethyl-2-oxo-2,3-dihydro-1H-benzo[d]imidazol-1-yl)-N-(4-fluorophenyl)acetamide hydrochloride salt] as the molecule, how does the IC50 read?
**A.** 15.3 µM

**Q.** How did the IC50 turn out when `COc1cncc(NC(=O)Cn2c(=O)n(C)c3c(-c4cc(F)c(OCc5nnc[nH]5)c(OC)c4)cc(C(F)(F)F)cc32)c1` [SSTN-611, 2-(4-(4-((4H-1,2,4-triazol-3-yl)methoxy)-3-fluoro-5-methoxyphenyl)-3-methyl-2-oxo-6-(trifluoromethyl)-2,3-dihydro-1H-benzo[d]imidazol-1-yl)-N-(5-methoxypyridin-3-yl)acetamide] was run?
**A.** 20.9 µM

**Q.** With `COc1cc(-c2cc(F)cc3c2n(C)c(=O)n3CC(=O)N(C)c2ccc(Cl)cc2)cc(F)c1OCc1nc[nH]n1` [compound 384, 2-(4-(4-((1H-1,2,4-triazol-3-yl)methoxy)-3-fluoro-5-methoxyphenyl)-6-fluoro-3-methyl-2-oxo-2,3-dihydro-1H-benzo[d]imidazol-1-yl)-N-(4-chlorophenyl)-N-methylacetamide hydrochloride] as the molecule, how does the IC50 read?
**A.** 14.2 µM

**Q.** `COc1cc(-c2cc(C(F)(F)F)cc3c2n(C)c(=O)n3CC(=O)Nc2ccn(C)n2)cc(F)c1OCc1nnc[nH]1` [SSTN-509, 2-(4-(4-((4H-1,2,4-triazol-3-yl)methoxy)-3-fluoro-5-methoxyphenyl)-3-methyl-2-oxo-6-(trifluoromethyl)-2,3-dihydro-1H-benzo[d]imidazol-1-yl)-N-(1-methyl-1H-pyrazol-3-yl)acetamide hydrochloride] was tested. Which IC50 did it give?
**A.** 16.1 µM

Source: patent publication US20230183215A1, “Notch Inhibitors and Uses Thereof” (StemSynergy Therapeutics, Inc., priority 2020, published 2023)
